Measurements from patent US20110230430A1, “SAPONIN EXTRACT FROM SAPONARIA SPP. AND USES THEREOF” (NATIONAL RESEARCH COUNCIL OF CANADA, priority 2008, published 2011).

Experiments:
Type in all cases: cell-based, human
CRL-2522 cells [1] = assay: Dual Sensor: MitoCasp Assay in CRL-2522 normal fibroblast cells; conditions: for Cells with caspase 3/7 activity / Cells with decreased mitochondrial membrane potential / Effect on apoptosis (in words) / Cells with Caspase 3/7 activity and decreased mitochondrial membrane potential vs untreated (in words): CRL-2522 cells; for Apoptosis in non-cancerous cell line (summary in words): fibroblast cell line CRL-2522, summary of the Examples
Text: Techniques to assay enzymatic and signaling processes involved in apoptosis have been developed as standard protocols. One example of an early step in apoptosis, is the release of cytochrome C from mitochondria and the activation of caspase-3. Induction of the caspases (a series of cytosolic proteases) is one of the most consistently observed features of apoptosis. Caspases are a family of proteolytic enzymes that transmit the apoptotic signal using a proteolytic cascade. […] Caspases 3 and 7 are effector caspases, central to the caspase cascade pathways. In particular, caspase-3 plays a central role in the process. When caspases are activated, they cleave target proteins; one of the most important of these is poly-(ADP-ribose) polymerase (PARP), which is a protein located in the nucleus. Therefore, assays detecting release of cytochrome C, detecting caspase-3 activity and detecting PARP degradation are effective determinants of apoptosis. The loss of mitochondrial membrane potential is known to occur during apoptosis. To analyze mitochondrial membrane potential, a cationic dye may be used which accumulates in the mitochondria of healthy cells. Collapse of the mitochondrial membrane potential during apoptosis prevents the dye from accumulating in the mitochondria resulting in a decrease in fluorescent intensity that can be detected with flow cytometry. Dual Sensor: MitoCasp™ (Cell Technology) used herein in the Examples is an assay that measures caspase 3/7 activity and cells with decreased mitochondrial membrane potential. In this assay, caspase 3/7 activity is detected using a cell permeable carboxyfluorescein labeled caspase inhibitor, which binds covalently to active caspases 3 and 7. Cells that contain bound inhibitor are detected by an increase in fluorescence when samples are analyzed by flow cytometry.
Following centrifugation at 500×g for 5 min, cell pellets were resuspended in PBS at 3.3×10^6 cells/mL. 300 μL cell suspension was mixed with 10 μL each of 30X Mitochondria Membrane Potential Dye and 30X Caspase 3/7 detection reagent. Following incubation for 60 min under normal growth conditions, cells were washed twice with 1× wash buffer and resuspended in 0.5 mL 1× wash buffer. Samples were analyzed by flow cytometry measuring the fluorescence emissions from 515 nm to 530 nm for caspase detection, and 574 nm to 600 nm for mitochondrial membrane potential detection.
CRL-2522 cells, acquired from ATCC, (American Type Culture Collection) are normal fibroblast cells that originated from human foreskin. CRL-2522 cells were maintained in RPMI 1640 medium (Gibco) supplemented with 10% fetal bovine serum (Cansera), 100 U/mL penicillin, 100 μg/mL streptomycin and 0.25 μg/mL amphotericin B. Cultures were maintained in medium at 37° C. with 5% CO2 and 100% relative humidity. […]

PC-3 cells = assay: Vybrant Apoptosis Assay Kit #2 in PC-3 cells
Text: (§1) Another apoptotic assay is the Annexin-V detection of extracellular phosphatidlyserine (PS). Normally, phosphatidylserine is localized on the inner membrane of the plasmalemma. However, during the early stages of apoptosis, externalization of PS takes place. Annexin-V is a calcium binding protein which binds to PS and can be observed with annexin-V-FITC staining by flow cytometry (Martin, et al., 1995). Alexa Fluor® 488-labeled Annexin V, which has a high affinity for PS, is used to detect apoptotic cells by binding to PS on the outer surface of the cell. Propidium iodide staining is used concurrently to detect dead cells. When cells are analyzed by flow cytometry apoptotic cells show Annexin V staining, late apoptotic cells show PI and Annexin V staining, and dead cells show only PI staining. The Vybrant® Apoptosis Assay Kit #2 (Molecular Probes™) used herein in the Examples is an assay that measures Annexin-V positive cells.
PC-3 cells (ATCC #CRL-1435) were derived from a prostate adenocarcinoma (Kaighn et al., 1979). They were maintained in RPMI 1640 medium (Gibco) supplemented with 10% fetal bovine serum (Cansera), 100 U/mL penicillin, and 100 μg/mL streptomycin and 0.25 μg/mL amphotericin B. Cultures were maintained in medium at 37° C. with 5% CO2 and 100% relative humidity.
PC-3 cells were seeded in tissue culture flasks with regular growth medium and maintained under normal conditions. […] Following incubation under normal growth conditions for the specified time, cells were washed once with cold phosphate-buffered saline (PBS) (137 mM NaCl, 2.7 mM KCl, 4.3 mM Na2HPO4.7H2O, 1.4 mM KH2PO4) and harvested as previously described. Assays were carried out according to instructions given in kits. All Flow Cytometry was performed using a Coulter Epics XL (Beckman).

CRL-2522 cells [2] = assay: Vybrant Apoptosis Assay Kit #2 in CRL-2522 cells
Text: as §1
CRL-2522 cells, acquired from ATCC, (American Type Culture Collection) are normal fibroblast cells that originated from human foreskin. CRL-2522 cells were maintained in RPMI 1640 medium (Gibco) supplemented with 10% fetal bovine serum (Cansera), 100 U/mL penicillin, 100 μg/mL streptomycin and 0.25 μg/mL amphotericin B. Cultures were maintained in medium at 37° C. with 5% CO2 and 100% relative humidity.
CRL-2522 cells were treated with PC1448 and assayed for apoptosis as described above for PC-3 cells.

MDA-MB-231 cells = assay: Vybrant Apoptosis Assay Kit #2 in MDA-MB-231 cells
Text: as §1
The MDA-MB-231 cell line (ATCC #HTB-26) was derived from the pleural effusion of a patient with a breast adenocarcinoma (Cailleau et al., 1974). The cells were maintained in RPMI 1640 (Gibco) supplemented with 10% fetal bovine serum (Camera), 100 U/mL penicillin, 100 μg/mL streptomycin and 0.25 μg/mL amphotericin B. Cultures were maintained in medium at 37° C. with 5% CO2 and 100% relative humidity.
MDA-MB-231 cells were treated with PC1448 and assayed for apoptosis as previously described for PC-3 cells.

Segetoside H [PC1448]
Cells with caspase 3/7 activity (CRL-2522 cells [1]; 2.5 μM PC1448, 37 hr): 1.7%
Cells with decreased mitochondrial membrane potential (CRL-2522 cells [1]; 2.5 μM PC1448, 37 hr): 5.6%
Cells with caspase 3/7 activity (CRL-2522 cells [1]; 5.0 μM PC1448, 37 hr): 4.0%
Cells with decreased mitochondrial membrane potential (CRL-2522 cells [1]; 5.0 μM PC1448, 37 hr): 5.0%
Cells with caspase 3/7 activity (CRL-2522 cells [1]; 10.0 μM PC1448, 37 hr): 21.9%
Cells with decreased mitochondrial membrane potential (CRL-2522 cells [1]; 10.0 μM PC1448, 37 hr): 4.6%
Effect on apoptosis (in words) (CRL-2522 cells [1]; 14 μM PC1448, 10-30 hr): no significant effect on apoptosis
Cells with caspase 3/7 activity (CRL-2522 cells [1]; 14 μM PC1448, 10 hr): 3.7%
Cells with decreased mitochondrial membrane potential (CRL-2522 cells [1]; 14 μM PC1448, 10 hr): 1.4%
Cells with caspase 3/7 activity (CRL-2522 cells [1]; 14 μM PC1448, 20 hr): 5.5%
Cells with decreased mitochondrial membrane potential (CRL-2522 cells [1]; 14 μM PC1448, 20 hr): 1.4%
Cells with caspase 3/7 activity (CRL-2522 cells [1]; 14 μM PC1448, 30 hr): 32.8%
Cells with decreased mitochondrial membrane potential (CRL-2522 cells [1]; 14 μM PC1448, 30 hr): 0.8%
Cells with caspase 3/7 activity (CRL-2522 cells [1]; 15.0 μM PC1448, 37 hr): 9.4%
Cells with decreased mitochondrial membrane potential (CRL-2522 cells [1]; 15.0 μM PC1448, 37 hr): 18.5%
Cells with Caspase 3/7 activity and decreased mitochondrial membrane potential vs untreated (in words) (CRL-2522 cells [1]; PC1448 15.0-2.5 μM, 37 hours): variable increase
Apoptosis in non-cancerous cell line (summary in words) (CRL-2522 cells [1]): no or little apoptosis
Annexin-V positive cells (PC-3 cells; 14 μM PC1448, 06 hr): 12.4%
Annexin-V positive cells (PC-3 cells; 14 μM PC1448, 16 hr): 28.3%
Annexin-V positive cells (PC-3 cells; 14 μM PC1448, 24 hr): 34.7%
Increase in Annexin V positive cells vs untreated (PC-3 cells; 14 μM PC1448, 24 hr): three fold
Change in number of cells showing Annexin V staining (in words) (CRL-2522 cells [2]; 14 μM PC1448, 10-40 hr): No meaningful changes
Annexin-V positive cells (CRL-2522 cells [2]; 14 μM PC1448, 10 hr): 17.2%
Annexin-V positive cells (CRL-2522 cells [2]; 14 μM PC1448, 20 hr): 9.3%
Annexin-V positive cells (CRL-2522 cells [2]; 14 μM PC1448, 40 hr): 18.2%
Increase in Annexin V positive cells vs untreated (MDA-MB-231 cells; 14 μM PC1448, 12 hours): 2.7 fold
Annexin-V positive cells (MDA-MB-231 cells; 14 μM PC1448, 12 hr): 46.3%
Annexin-V positive cells (MDA-MB-231 cells; 14 μM PC1448, 24 hr): 37.9%
Annexin-V positive cells (MDA-MB-231 cells; 14 μM PC1448, 48 hr): 37.9%

Segetoside I [PC1464]
Cells with caspase 3/7 activity (CRL-2522 cells [1]; 1.25 μM PC1464, 36 hr): 1.7%
Cells with decreased mitochondrial membrane potential (CRL-2522 cells [1]; 1.25 μM PC1464, 36 hr): 1.7%
Cells with caspase 3/7 activity (CRL-2522 cells [1]; 2.5 μM PC1464, 36 hr): 3.2%
Cells with decreased mitochondrial membrane potential (CRL-2522 cells [1]; 2.5 μM PC1464, 36 hr): 1.4%
Cells with caspase 3/7 activity (CRL-2522 cells [1]; 5.0 μM PC1464, 36 hr): 14.4%
Cells with decreased mitochondrial membrane potential (CRL-2522 cells [1]; 5.0 μM PC1464, 36 hr): 1.3%
Effect on apoptosis (in words) (CRL-2522 cells [1]; 7 μM PC1464, 10-30 hr): minimal effect
Cells with caspase 3/7 activity (CRL-2522 cells [1]; 7 μM PC1464, 10 hr): 3.2%
Cells with decreased mitochondrial membrane potential (CRL-2522 cells [1]; 7 μM PC1464, 10 hr): 4.4%
Cells with caspase 3/7 activity (CRL-2522 cells [1]; 7 μM PC1464, 20 hr): 11.7%
Cells with decreased mitochondrial membrane potential (CRL-2522 cells [1]; 7 μM PC1464, 20 hr): 4.4%
Cells with caspase 3/7 activity (CRL-2522 cells [1]; 7 μM PC1464, 30 hr): 16.9%
Cells with decreased mitochondrial membrane potential (CRL-2522 cells [1]; 7 μM PC1464, 30 hr): 5.1%
Cells with caspase 3/7 activity (CRL-2522 cells [1]; 10.0 μM PC1464, 36 hr): 19.9%
Cells with decreased mitochondrial membrane potential (CRL-2522 cells [1]; 10.0 μM PC1464, 36 hr): 2.2%
Cells with Caspase 3/7 activity and decreased mitochondrial membrane potential vs untreated (in words) (CRL-2522 cells [1]; PC1464 10.0-1.25 μM, 36 hours): slight increase
Apoptosis in non-cancerous cell line (summary in words) (CRL-2522 cells [1]): no or little apoptosis
Annexin-V positive cells (PC-3 cells; 7 μM PC1464, 10 hr): 21.0%
Annexin-V positive cells (PC-3 cells; 7 μM PC1464, 20 hr): 30.9%
Annexin-V positive cells (PC-3 cells; 7 μM PC1464, 30 hr): 44.7%
Increase in Annexin V positive cells vs untreated (PC-3 cells; 7 μM or 14 μM PC1464, 30 hr): three to six fold
Annexin-V positive cells (PC-3 cells; 14 μM PC1464, 10 hr): 11.5%
Annexin-V positive cells (PC-3 cells; 14 μM PC1464, 20 hr): 28.9%
Annexin-V positive cells (PC-3 cells; 14 μM PC1464, 30 hr): 49.4%
Effect on Annexin V positive cells (in words) (CRL-2522 cells [2]; 7 μM PC1464, 10-30 hr): little effect
Annexin-V positive cells (CRL-2522 cells [2]; 7 μM PC1464, 10 hr): 6.0%
Annexin-V positive cells (CRL-2522 cells [2]; 7 μM PC1464, 20 hr): 8.4%
Annexin-V positive cells (CRL-2522 cells [2]; 7 μM PC1464, 30 hr): 10.2%
Annexin-V positive cells (MDA-MB-231 cells; 7 μM PC1464, 12 hr): 28.8%
Annexin-V positive cells (MDA-MB-231 cells; 7 μM PC1464, 24 hr): 39.7%
Increase in Annexin V positive cells vs untreated (MDA-MB-231 cells; 7 μM PC1464, 36 hour): 3 fold
Annexin-V positive cells (MDA-MB-231 cells; 7 μM PC1464, 36 hr): 49.3%
